Structures are written as SMILES. “And” between values parts separate entries of the source, which are not always exact repeats. Equal entries are not always repeated. Inconclusive results and toxic doses are left out.

The test deals with P388 leukemia ip, CD2F1 mice, survival T/C. The test can be described thus: NCI In Vivo Anticancer Drug Screen. Data for tumor model P388 Leukemia (intraperitoneal) in CD2F1 (CDF1) mice. The conditions noted are these: endpoint: median survival time, higher = longer survival. The essentials:
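Mice carrying the transplanted tumor received test compound or vehicle. Survival was recorded in each group, and the value is the treated-group measurement divided by that of the vehicle-treated control group.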

Where [1] appears, read: dose: 100.0 mg/kg/injection, schedule: Q04DX003 (ip), vehicle: saline.
The mark [2] stands for this setting: dose: 200.0 mg/kg/injection, schedule: Q04DX003 (ip), vehicle: saline.
[3] abbreviates: dose: 400.0 mg/kg/injection, schedule: Q04DX003 (ip), vehicle: saline.
Where [4] appears, read: dose: 50.0 mg/kg/injection, schedule: Q01DX009 (ip), vehicle: saline with Tween-80.
[5] abbreviates: dose: 100.0 mg/kg/injection, schedule: Q01DX009 (ip), vehicle: saline with Tween-80.
The mark [6] stands for this setting: dose: 200.0 mg/kg/injection, schedule: Q01DX009 (ip), vehicle: saline with Tween-80.
[7] abbreviates: dose: 100.0 mg/kg/injection, schedule: Q01DX009 (ip), vehicle: saline.
Where [8] appears, read: dose: 200.0 mg/kg/injection, schedule: Q01DX009 (ip), vehicle: saline.
Setting [9] is: dose: 50.0 mg/kg/injection, schedule: Q01DX009 (ip), vehicle: Klucel (hydroxypropylcellulose) (HPC).
The mark [10] stands for this setting: dose: 100.0 mg/kg/injection, schedule: Q01DX009 (ip), vehicle: Klucel (hydroxypropylcellulose) (HPC).
[11] abbreviates: dose: 200.0 mg/kg/injection, schedule: Q01DX009 (ip), vehicle: Klucel (hydroxypropylcellulose) (HPC).
Setting [12] is: dose: 60.0 mg/kg/injection, schedule: Q01DX005 (ip), vehicle: saline with Tween-80.
Setting [13] is: dose: 120.0 mg/kg/injection, schedule: Q01DX005 (ip), vehicle: saline with Tween-80.
The mark [14] stands for this setting: dose: 240.0 mg/kg/injection, schedule: Q01DX005 (ip), vehicle: saline with Tween-80.
Where [15] appears, read: dose: 50.0 mg/kg/injection, schedule: Q01DX009 (ip), vehicle: saline.
Where [16] appears, read: dose: 60.0 mg/kg/injection, schedule: Q01DX005 (ip), vehicle: Klucel (hydroxypropylcellulose) (HPC).
Where [17] appears, read: dose: 120.0 mg/kg/injection, schedule: Q01DX005 (ip), vehicle: Klucel (hydroxypropylcellulose) (HPC).
The mark [18] stands for this setting: dose: 240.0 mg/kg/injection, schedule: Q01DX005 (ip), vehicle: Klucel (hydroxypropylcellulose) (HPC).
[19] abbreviates: dose: 25.0 mg/kg/injection, schedule: Q01DX009 (ip), vehicle: saline with Tween-80.

Turning to `O=[N+]([O-])c1cc2[nH]cnc2c([N+](=O)[O-])c1Nc1ccc(O)cc1`, the T/C was 87 % of control (dose: 100.0 mg/kg/injection, schedule: Q04DX003 (ip), vehicle: saline with Tween-80); 95 % of control (dose: 200.0 mg/kg/injection, schedule: Q04DX003 (ip), vehicle: saline with Tween-80); 101 % of control (dose: 400.0 mg/kg/injection, schedule: Q04DX003 (ip), vehicle: saline with Tween-80).
Regarding `Cc1nc2ccncn2n1`, the T/C under setting [1] is 99 % of control, the T/C under setting [2] is 95 % of control and the T/C under setting [3] is 93 % of control.
As for `COc1ccc2c(c1)C(c1cccc3ccccc13)OC2=O` (centres undefined), the T/C (dose: 6.25 mg/kg/injection, schedule: Q01DX005 (ip), vehicle: Klucel (hydroxypropylcellulose) (HPC)) is 103 % of control; the T/C (dose: 12.5 mg/kg/injection, schedule: Q01DX005 (ip), vehicle: Klucel (hydroxypropylcellulose) (HPC)) is 92 % of control; the T/C (dose: 25.0 mg/kg/injection, schedule: Q01DX005 (ip), vehicle: Klucel (hydroxypropylcellulose) (HPC)) is 87 % of control; the T/C (dose: 50.0 mg/kg/injection, schedule: Q01DX005 (ip), vehicle: Klucel (hydroxypropylcellulose) (HPC)) is 90 % of control.
With `C/C(=C\c1ccccc1)c1ccccn1`, the T/C reads like this: (dose: 50.0 mg/kg/injection, schedule: Q01DX005 (ip), vehicle: saline) 99 % of control; (dose: 100.0 mg/kg/injection, schedule: Q01DX005 (ip), vehicle: saline) 105 % of control; (dose: 200.0 mg/kg/injection, schedule: Q01DX005 (ip), vehicle: saline) 113 % of control.
With `Cc1cc(O)c(NCCN(C)C)c2c(=O)c3ccccc3sc12`, the T/C runs as follows: under setting [4], 100 % of control; under setting [5], 101 % of control; under setting [6], 100 % of control.
For `C=CCOC(OCC=C)C(OCC=C)OCC=C`, the T/C is, setting by setting: under setting [7], 109 % of control; under setting [1], 100 % of control; under setting [8], 100 % of control; under setting [2], 100 % of control; (dose: 400.0 mg/kg/injection, schedule: Q01DX009 (ip), vehicle: saline) 122 % of control; under setting [3], 100 % of control.
On to `Cc1ccc(S(=O)(=O)SSC(=S)Sc2ccccc2)cc1`, for which the T/C is 116 % of control under setting [9], 107 % of control under setting [10] and 109 % of control under setting [11].
As for `COc1cc2nn(-c3ccccc3N)nc2cc1OC`, the T/C runs as follows: under setting [12], 106 % of control; under setting [13], 100 % of control; under setting [14], 102 % of control.
Regarding `N#CC1=CN(Cc2ccc3c(c2)OCO3)C=CC1`, the T/C by setting is: (dose: 50.0 mg/kg/injection, schedule: Q01DX005 (ip), vehicle: Klucel + Tween-80) 100 % of control; (dose: 100.0 mg/kg/injection, schedule: Q01DX005 (ip), vehicle: Klucel + Tween-80) 98 % of control; (dose: 200.0 mg/kg/injection, schedule: Q01DX005 (ip), vehicle: Klucel + Tween-80) 92 % of control.
In the case of `CCCCCCCCCCCCC1=NCC[N+]1(CCO)CC(O)COc1cc(Cl)c(Cl)cc1Cl` (centres undefined), the T/C by setting is: (dose: 12.5 mg/kg/injection, schedule: Q01DX009 (ip), vehicle: saline) 105 % of control; (dose: 25.0 mg/kg/injection, schedule: Q01DX009 (ip), vehicle: saline) 105 % of control; under setting [15], 102 % of control and 95 % of control; under setting [7], 90 % of control.
Turning to `C=C(CN(C)C)C(=O)c1ccc(Oc2ccccc2)cc1`, the T/C reads like this: (dose: 0.93 mg/kg/injection, schedule: Q01DX005 (ip), vehicle: saline) 104 % of control; (dose: 1.87 mg/kg/injection, schedule: Q01DX005 (ip), vehicle: saline) 100 % of control; (dose: 3.75 mg/kg/injection, schedule: Q01DX005 (ip), vehicle: saline) 100 % of control.
Consider `C/C(=N\NC(=S)NNC(=S)N1CCCc2ccccc21)c1ccccn1`, for which the T/C was 113 % of control (dose: 100.0 mg/kg/injection, schedule: Q04DX002 (ip), vehicle: Klucel (hydroxypropylcellulose) (HPC)) and 115 % of control (dose: 200.0 mg/kg/injection, schedule: Q04DX002 (ip), vehicle: Klucel (hydroxypropylcellulose) (HPC)).
Regarding `O=C1C(c2ccccc2)=C(c2ccccc2)C(=O)N1c1ccccn1`, the T/C was 94 % of control under setting [9], 105 % of control under setting [10] and 103 % of control under setting [11].
`COc1ccccc1N1CCN(C(=O)CCCl)CC1`: the T/C was 109 % of control under setting [16], 103 % of control under setting [17] and 105 % of control under setting [18].
Take `O=C1N/C(=N\c2nc3ccccc3s2)c2ccccc21`: the T/C is, setting by setting: (dose: 6.25 mg/kg/injection, schedule: Q01DX009 (ip), vehicle: saline with Tween-80) 88 % of control; under setting [19], 91 % of control; under setting [5], 86 % of control; under setting [6], 89 % of control.
In the case of `CCCn1c(Cl)c(/C=N\Nc2cccc([N+](=O)[O-])c2)c2ccccc21`, the T/C (dose: 100.0 mg/kg/injection, schedule: Q01DX001 (ip), vehicle: saline with Tween-80) was 91 % of control; the T/C (dose: 200.0 mg/kg/injection, schedule: Q01DX001 (ip), vehicle: saline with Tween-80) is 92 % of control; the T/C (dose: 400.0 mg/kg/injection, schedule: Q01DX001 (ip), vehicle: saline with Tween-80) is 91 % of control.
Take `CN(C)C=Nc1ccccc1`: the T/C was 103 % of control under setting [15], 103 % of control under setting [7] and 108 % of control under setting [8].
Consider `CCCc1cc(=O)[nH]c(SCC(=O)O)n1`, for which the T/C is 100 % of control under setting [12], 101 % of control under setting [13] and 99 % of control under setting [14].
For the compound `CC1Cc2nc3ccccc3c(=O)n2O1` (centres undefined), the T/C under setting [9] is 103 % of control, the T/C under setting [10] is 107 % of control and the T/C under setting [11] is 103 % of control.
With `CN(C)c1cc(N(C)C)c2cc(C#N)ccc2n1`, the T/C under setting [9] is 99 % of control, the T/C under setting [10] is 98 % of control and the T/C under setting [11] is 107 % of control.
As to `O=C1CC2(C(=O)O1)c1ccccc1-c1ccccc12`, the T/C was 111 % of control under setting [12], 105 % of control under setting [13] and 112 % of control under setting [14].
Regarding `CCOC(=O)CCC(=O)Oc1cccc2c1C(=O)c1c(O)cccc1C2=O`, the T/C is 91 % of control under setting [16], 95 % of control under setting [17] and 97 % of control under setting [18].
With `O=P(NC1CCCC1)(N1CC1)N1CC1`, the T/C was 110 % of control (dose: 2.0 mg/kg/injection, schedule: Q04DX003 (ip), vehicle: saline); 154 % of control (dose: 2.66 mg/kg/injection, schedule: Q01DX009 (ip), vehicle: saline); 209 % of control (dose: 4.0 mg/kg/injection, schedule: Q01DX009 (ip), vehicle: saline); 120 % of control (dose: 4.0 mg/kg/injection, schedule: Q04DX003 (ip), vehicle: saline); 118 % of control (dose: 6.0 mg/kg/injection, schedule: Q01DX009 (ip), vehicle: saline); 200 % of control (dose: 8.0 mg/kg/injection, schedule: Q04DX003 (ip), vehicle: saline). For the same compound, under “dose: 9.0 mg/kg/injection, schedule: Q01DX009 (ip), vehicle: saline”, the T/C is 100 % of control.
Regarding `O=[N+]([O-])c1cccc(S(=O)(=O)N/N=C/c2cccc([N+](=O)[O-])c2O)c1`, the T/C is 106 % of control under setting [12], 107 % of control under setting [13] and 104 % of control under setting [14].
As to `COC(=O)C1=COC(C)C2CN3CCC4(C(=O)Nc5ccccc54)C3CC12` (centres undefined), the T/C was 101 % of control under setting [12] and 101 % of control under setting [13].
With `CC(=O)C(C)P(=O)(O)O` (centres undefined), the T/C is 99 % of control under setting [15], 101 % of control under setting [7] and 106 % of control under setting [8].
For `N#CS.N=C=S.O=N[O-].[Co+3].[NH2-].[NH2-].[NH2-].[NH2-]`, the T/C runs as follows: under setting [19], 102 % of control; under setting [4], 89 % of control; under setting [5], 108 % of control.
